Where a name gives a salt, the structure may show the parent alone. Read-outs that look alike come from different tables or passages of the source.
Tests used:
Format in all cases: cell-based
[1] = tested on: Escherichia coli (ATCC-8739); assay: Assay of conjugative action of SL and antibiotic (micro dilution and spread plate, CFU count, % cell survival)
Protocol: (§4) Accordingly, the stock solutions were prepared in sterile distilled water to assess the MIC values of the antibiotic and SL. The stock strength used was 1 mg/ml for antibiotics and 10 mg/ml for SL. […] In the first step, A600 i.e. absorbance of bacterial suspension giving isolated colonies was fixed and the same A600 was maintained throughout the experiment. Then the MIC values were determined for SL as well as antibiotic against the bacteria. […] For assessing the conjugative effect, the sublethal concentrations of both antimicrobial agents were used so as to rightly evaluate the conjugative effect.
(§5) According to another aspect, the assay of conjugative action of SL and antibiotic was performed using standard micro dilution and spread plate method. The reaction mixtures were prepared by adding SL and antibiotic stock solutions to sterile distilled water in requisite volumes followed by the addition of bacterial suspension. The control reactions were also set with both bacterial systems to evaluate the effect of antibiotic and SL alone. Controls without addition of any antimicrobial agent were also maintained. The reaction mixtures were incubated at 28° C., 180 rpm for 6 h. The samples were removed at periodic intervals of 2 h, 4 h and 6 h and number of Colony Forming Units (CFUs) were determined by spreading 50 μl of mixture on Nutrient agar plates. […]

[2] = tested on: Escherichia coli (ATCC-8739); assay: MIC determination on culture plate; conditions: against E. coli (ATCC8739)
From the text: (§1) The test microorganisms—Staphylococcus aureus (ATCC-29737) (gram positive) and Escherichia coli (ATCC-8739) (gram negative) used in the invention were procured from National Collection of Industrial Microorganisms, NCL. These two bacteria are of concern due to following reasons—Staphylococcus aureus, capable of causing wide range of severe skin infections; is rapidly evolving resistance to contemporary topical as well as systemic antibiotics (Englander and Friedman 2010). And Escherichia coli, another index bacterium; is more than just a harmless intestinal inhabitant; it can also be a highly versatile, and frequently deadly pathogen. Several different E. coli strains cause diverse intestinal and extra-intestinal diseases by means of virulence factors that affect a wide range of cellular processes (Kaper et al. 2004).
(§2) Accordingly, the stock solutions were prepared in sterile distilled water to assess the MIC values of the antibiotic and SL. The stock strength used was 1 mg/ml for antibiotics and 10 mg/ml for SL. The conjugative/synergistic effect of SL and tetracycline was checked against S. aureus while the conjugative effect of SL and cefaclor was checked against E. coli. In the first step, A600 i.e. absorbance of bacterial suspension giving isolated colonies was fixed and the same A600 was maintained throughout the experiment. Then the MIC values were determined for SL as well as antibiotic against the bacteria. Minimum Inhibitory Concentration (MIC) is defined as the lowest concentration of compound that inhibits visible growth of microorganisms on the culture plate (Rai et al. 2010). For assessing the conjugative effect, the sublethal concentrations of both antimicrobial agents were used so as to rightly evaluate the conjugative effect. Against S. aureus, sublethal concentration of SL was decided to be 300 μg/ml and for tetracycline it was 15 μg/ml.
(§3) The stock solutions were prepared in sterile distilled water to assess the MIC values of the antibiotic and SL. The stock strength used was 1 mg/ml for antibiotics and 10 mg/ml for SL. […]

[3] = tested on: Staphylococcus aureus (ATCC-29737); assay: MIC determination on culture plate
From the text: as §1, §2, §3

[4] = tested on: Staphylococcus aureus (ATCC-29737); assay: Assay of conjugative action of SL and antibiotic (micro dilution and spread plate, CFU count, % cell survival); conditions: FIG. 2(a); tetracycline 15 μg/ml, SL 300 μg/ml; up to 6 h exposure
Protocol: as §4, §5

With `N[C@@H](C(=O)N[C@@H]1C(=O)N2C(C(=O)O)=C(Cl)CS[C@H]12)c1ccccc1` [Cefaclor] the “exposure required to get equivalent effect (~98% killing)” value ([1]; E. coli, cefaclor alone 50 μg/ml) was 6 h, the “inhibition of E. coli (in words)” value ([1]; FIG. 2(b), cefaclor 50 μg/ml, SL 500 μg/ml, up to 6 h exposure) was “almost total inhibition at the end of 6 h exposure” and the MIC [2] was 200 µg/mL.

For `CN(C)[C@@H]1C(O)=C(C(N)=O)C(=O)[C@@]2(O)C(O)=C3C(=O)c4c(O)cccc4[C@@](C)(O)[C@H]3C[C@@H]12` [tetracycline-HCl], the MIC ([3]; Staphylococcus aureus, against S. aureus (ATCC29737), read-out: MIC value) was 150 µg/mL, the MIC ([3]; against Staphylococcus aureus) was 150 μn/ml and the “inhibition of S. aureus (in words)” value [4] was “cannot achieve total inhibition even after 6 h”.

Source: patent US9585903B2, “Pharmaceutical composition comprising sophorolipid in combination with an antibiotic” (priority 2013, dated 2017)
